This note sets out measurements from patent publication US8354441B2, “Oxazoline derivatives” (Hoffmann-La Roche Inc., priority 2009, dated 2013).

The target of one assay is T1, mouse TAAR1 (Mus musculus, UniProt Q923Y8).
T1 construct: expressed in transfected cells; host or cells: HEK293 (ATCC # CRL-1573), stably transfected with pIRESneo2 expression plasmid
The assay is described as follows: TAAR1 radioligand binding with [3H]-rac-2-(1,2,3,4-tetrahydro-1-naphthyl)-2-imidazoline, membranes of stably transfected HEK293 cells. The note with it: first value of the cell, read-out: Ki (μM) mouse/rat: mouse. An outline of the steps:
(§1)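 Competition binding: competitors spanning 10 pM–30 μM displace 60 nM [3H]-rac-2-(1,2,3,4-tetrahydro-1-naphthyl)-2-imidazoline from stably transfected HEK293 membranes (mouse or rat receptor), 30 min, 4 °C, pH 7.0 buffer with Mg2+/Ca2+. Bound label counted after GF/C filtration; 10 μM unlabelled ligand defines non-specific binding.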

The next assay deals with T2, rat TAAR1 (Rattus norvegicus, UniProt Q923Y9).
T2 construct: expressed in transfected cells; host or cells: HEK293 (ATCC # CRL-1573), stably transfected with pIRESneo2 expression plasmid
The assay is described as above. The conditions noted are these: second value of the cell, read-out: Ki (μM) mouse/rat: rat. A digest of the protocol:
as §1

The structures appear in SMILES notation.

T1 sequence (Q923Y8 whole entry): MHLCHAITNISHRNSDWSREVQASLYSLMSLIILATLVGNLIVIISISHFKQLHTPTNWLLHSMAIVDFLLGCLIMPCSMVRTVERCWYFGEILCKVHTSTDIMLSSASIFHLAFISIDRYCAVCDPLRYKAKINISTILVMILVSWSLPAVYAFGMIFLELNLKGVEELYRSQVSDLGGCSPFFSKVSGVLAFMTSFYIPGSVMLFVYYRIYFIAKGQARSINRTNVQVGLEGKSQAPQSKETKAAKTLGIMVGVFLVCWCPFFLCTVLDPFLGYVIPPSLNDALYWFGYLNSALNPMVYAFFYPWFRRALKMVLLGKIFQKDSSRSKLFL
T2 sequence (Q923Y9 whole entry): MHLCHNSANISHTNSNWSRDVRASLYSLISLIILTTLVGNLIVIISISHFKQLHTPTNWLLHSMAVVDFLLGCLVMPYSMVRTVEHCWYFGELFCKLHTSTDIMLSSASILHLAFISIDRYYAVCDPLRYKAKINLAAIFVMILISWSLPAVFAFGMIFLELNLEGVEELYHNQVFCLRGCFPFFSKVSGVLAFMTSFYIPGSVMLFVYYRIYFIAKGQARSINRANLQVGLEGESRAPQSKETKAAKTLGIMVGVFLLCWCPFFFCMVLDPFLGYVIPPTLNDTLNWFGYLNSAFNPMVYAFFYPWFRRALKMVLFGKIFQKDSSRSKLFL

Consider `NC1=N[C@@H](CCc2ccc(NC(=O)c3ccc(Cl)nn3)cc2)CO1` [Example 122, (S)-N-(4-(2-(2-Amino-4,5-dihydrooxazol-4-yl)ethyl)phenyl)-6-chloropyridazine-3-carboxamide], for which the Ki on mouse TAAR1 and at rat TAAR1 was 0.0043 µM throughout.
Regarding `NC1=N[C@@H](CCc2ccc(NC(=O)c3nc4ccccc4[nH]3)cc2)CO1` [Example 86, 1H-Benzoimidazole-2-carboxylic acid {4-[2-((S)-2-amino-4,5-dihydro-oxazol-4-yl)-ethyl]-phenyl}-amide], the Ki at mouse TAAR1 was 0.0022 µM; at rat TAAR1, 0.0006 µM.
On the same counts, the results for `CCOc1cnc(C(=O)Nc2ccc(CC[C@@H]3N=C(N)O[C@H]3C)cc2)cn1` [Example 218, 5-Ethoxy-pyrazine-2-carboxylic acid {4-[2-((4S,5S)-2-amino-5-methyl-4,5-dihydro-oxazol-4-yl)-ethyl]-phenyl}-amide] are 0.0014 µM and 0.0035 µM.
On the same counts, the results for `COc1cnc(C(=O)Nc2ccc(CC[C@H]3COC(N)=N3)cc2)cn1` [Example 127, (S)-N-(4-(2-(2-Amino-4,5-dihydrooxazol-4-yl)ethyl)phenyl)-5-methoxypyrazine-2-carboxamide] are 0.0063 µM and 0.0022 µM.
For the compound `NC1=N[C@@H](CCc2ccc(NC(=O)c3ccc(Cl)nc3)cc2)CO1` [Example 31, N-{4-[2-((S)-2-Amino-4,5-dihydro-oxazol-4-yl)-ethyl]-phenyl}-6-chloro-nicotinamide], the Ki was 0.0025 µM on mouse TAAR1 and 0.0035 µM at rat TAAR1.
On the same counts, the results for `Cn1cc(Cl)c(C(=O)Nc2ccc(CC[C@H]3COC(N)=N3)cc2)n1` [Example 194, (S)-N-(4-(2-(2-Amino-4,5-dihydrooxazol-4-yl)ethyl)phenyl)-4-chloro-1-methyl-1H-pyrazole-3-carboxamide] are 0.0091 µM and 0.0035 µM.
On the same counts, the results for `CC[C@@H](C[C@H]1COC(N)=N1)c1ccc(NC(=O)Nc2ccc(C(F)(F)F)cc2)cc1` [Example 13, 1-{4-[(S)-1-((S)-2-Amino-4,5-dihydro-oxazol-4-ylmethyl)-propyl]-phenyl}-3-(4-trifluoromethyl-phenyl)-urea] are 0.0007 µM and 0.0023 µM.
On the same counts, the results for `CCCc1ccc(C(=O)Nc2ccc(CC[C@H]3COC(N)=N3)cc2)cc1` [Example 61, N-{4-[2-((S)-2-Amino-4,5-dihydro-oxazol-4-yl)-ethyl]-phenyl}-4-propyl-benzamide] are 0.0002 µM and 0.0007 µM.
`NC1=N[C@@H](CCc2ccc(NC(=O)CCC3CC3)cc2)CO1` [Example 170, (S)-N-(4-(2-(2-Amino-4,5-dihydrooxazol-4-yl)ethyl)phenyl)-3-cyclopropylpropanamide]: the figures for the Ki on mouse TAAR1 and at rat TAAR1 were 0.0074 µM and 0.0018 µM, respectively.
